Laboratory results reported in paper PMC10184127 (Journal of Medicinal Chemistry, 2023).

Key:
[1] = molecular target: hAChE (Homo sapiens, UniProt P22303)
[2] = molecular target: AgAChE1 (Anopheles gambiae, UniProt Q869C3)
[3] = at higher concentrations

Chain of hAChE (P22303 32-614): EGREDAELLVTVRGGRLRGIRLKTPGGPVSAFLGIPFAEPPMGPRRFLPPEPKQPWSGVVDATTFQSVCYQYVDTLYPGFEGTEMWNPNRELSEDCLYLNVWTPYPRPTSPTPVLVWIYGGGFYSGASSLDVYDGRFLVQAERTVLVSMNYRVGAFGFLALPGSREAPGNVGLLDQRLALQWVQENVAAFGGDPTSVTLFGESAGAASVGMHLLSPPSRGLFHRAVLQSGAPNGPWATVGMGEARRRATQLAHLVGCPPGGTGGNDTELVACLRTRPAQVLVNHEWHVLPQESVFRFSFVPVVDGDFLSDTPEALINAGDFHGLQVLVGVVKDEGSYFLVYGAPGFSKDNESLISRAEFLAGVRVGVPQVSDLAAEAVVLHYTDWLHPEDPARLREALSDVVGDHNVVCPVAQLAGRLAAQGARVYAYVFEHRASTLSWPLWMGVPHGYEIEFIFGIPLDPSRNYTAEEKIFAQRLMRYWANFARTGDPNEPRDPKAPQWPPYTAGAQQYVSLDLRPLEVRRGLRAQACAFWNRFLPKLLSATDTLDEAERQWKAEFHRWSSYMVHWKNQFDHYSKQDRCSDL
Chain of AgAChE1 (Q869C3 39-737): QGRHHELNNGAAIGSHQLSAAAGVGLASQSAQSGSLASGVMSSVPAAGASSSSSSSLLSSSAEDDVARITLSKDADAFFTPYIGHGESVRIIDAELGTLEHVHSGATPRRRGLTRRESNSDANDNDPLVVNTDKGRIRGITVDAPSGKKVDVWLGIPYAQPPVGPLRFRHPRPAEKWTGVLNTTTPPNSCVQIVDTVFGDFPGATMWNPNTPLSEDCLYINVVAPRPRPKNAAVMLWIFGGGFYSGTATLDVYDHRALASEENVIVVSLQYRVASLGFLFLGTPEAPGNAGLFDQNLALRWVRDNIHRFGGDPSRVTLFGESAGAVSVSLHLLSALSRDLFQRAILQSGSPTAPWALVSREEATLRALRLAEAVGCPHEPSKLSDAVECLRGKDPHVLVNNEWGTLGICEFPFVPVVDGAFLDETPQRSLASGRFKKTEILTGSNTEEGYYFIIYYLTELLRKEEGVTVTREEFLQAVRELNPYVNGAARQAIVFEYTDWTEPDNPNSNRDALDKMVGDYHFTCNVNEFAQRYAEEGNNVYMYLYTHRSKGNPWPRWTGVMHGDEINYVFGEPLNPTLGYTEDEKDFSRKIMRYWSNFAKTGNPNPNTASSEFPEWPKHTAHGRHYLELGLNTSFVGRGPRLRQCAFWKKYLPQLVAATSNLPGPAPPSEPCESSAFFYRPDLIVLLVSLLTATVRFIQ

CN(C)CCN1C(=O)CSC1c1ccc(Cl)cc1Cl.Cl (stereo not drawn) [compound 38, 2-(2,4-Dichlorophenyl)-3-(2-(dimethylamino)ethyl)thiazolidin-4-one Hydrochloride]
activity against hAChE [1]: inactive

Cl.O=C1CSC(c2ccc(F)cc2)N1CCNC1CC1 (stereo not drawn) [compound 49, 3-(2-(Cyclopropylamino)ethyl)-2-(4-fluorophenyl)thiazolidin-4-one Hydrochloride]
loss of potency vs 3-carbon chain dimethylamine analogue [2]: 13 fold

CNCCN1C(=O)CSC1c1cccc2ccccc12.Cl (stereo not drawn) [compound 54, N-Methyl-2-(2-(naphthalen-1-yl)-4-oxothiazolidin-3-yl)ethan-1-aminium Chloride]
times weaker binders than their tertiary amine analogues [2]: over 10 times

CN(C)CCN1C(=O)CSC1c1ccc(F)cc1.Cl (stereo not drawn) [compound 37, 3-(2-(Dimethylamino)ethyl)-2-(4-fluorophenyl)thiazolidin-4-one Hydrochloride]
activity against hAChE [1]: inactive

CN(C)CCCN1C(=O)CSC1c1cccc2ccccc12.Cl (stereo not drawn) [compound 36, 3-(3-(Dimethylamino)propyl)-2-(naphthalen-1-yl)thiazolidin-4-one Hydrochloride]
solubility [3]: reduced its solubility at higher concentrations

O=C1CSC(c2ccccc2)N1CCc1ccc(F)cc1 (stereo not drawn) [compound 9, 3-(4-Fluorophenethyl)-2-phenylthiazolidin-4-one]
IC50 (μM) AgAChE1 [2]: Inactive | inhibitory activity towards AgAChE1 [2]: no detectable inhibitory activity

CC(C)NCCN1C(=O)CSC1c1cccc2ccccc12.Cl (stereo not drawn) [compound 43, 3-(2-(Isopropylamino)ethyl)-2-(naphthalen-1-yl)thiazolidin-4-one Hydrochloride]
times weaker binders than their tertiary amine analogues [2]: over 10 times

[N-]=[N+]=NCCCN1C(=O)CSC1c1ccccc1 (stereo not drawn) [compound 17, 3-(3-Azidopropyl)-2-phenylthiazolidin-4-one]
IC50 (μM) AgAChE1 [2]: Inactive | inhibitory activity towards AgAChE1 [2]: no detectable inhibitory activity

CN(C)CCN1C(=O)CSC1c1cccc2ccccc12.Cl (stereo not drawn) [compound 40, 3-(2-(Dimethylamino)ethyl)-2-(naphthalen-1-yl)thiazolidin-4-one Hydrochloride]
activity against hAChE [1]: inactive

CN(C)CCN1C(=O)CSC1c1cccc(F)c1F.Cl (stereo not drawn) [compound 39, 2-(2,3-Difluorophenyl)-3-(2-(dimethylamino)ethyl)thiazolidin-4-one Hydrochloride]
activity against hAChE [1]: inactive
